Source: patent US9764047B2, “Method for obtaining novel derivatives of naphthalene for the in vivo diagnosis of alzheimer's disease” (CENTRO DE NEUROCIENCIAS DE CUBA, priority 2009, dated 2017)
Like-named read-outs stand apart in the source and are kept apart here. One block for each compound: values may come before it.

Experiments:
[1] = Determination of partition coefficients (n-octanol/water, radiotracer method); format: physicochemical
Excerpt: Chemical compounds that cross the blood brain barrier (BBB) should be neutral and lipophilic and also, have a low molecular weight. The partition coefficient (P) provides a measure of the compound lipophilicity and is closely related to drug distribution in the body, its absorption in tissues and its route of excretion (Meade et al. in Curr. Opin. Neurobiol., 2003, 13, 5, 597-602). One method used to determine this parameter is that of radiotracers which relates the radiotracers activity or number of counts in the octanol organic phase with that of the aqueous phase. In this invention the compounds labeling is carried out using the Iodogeno method (^131I).
Determination of Partition Coefficients: A solution of 9 (20 μL), prepared as described in example 10, was added to a mixture of 3 ml of n-octanol and 3 ml of distilled water. After stirring and leaving to stand the mixture, aliquots of 20 μL from each phase were taken to determine the radiometric distribution ratio by an activity meter (CRC 35R, Capintec Inc.). This procedure was repeated to the radiopharmaceutical of ^99mTc-ECD as reference, which is used for cerebral perfusion studies.

[2] = Biodistribution in rats after intravenous injection (gamma camera imaging); format: in vivo, male Wistar rats
Method: The arrow indicates the detection of the compound in the region of interest (maximum uptake at about 3 min.).
Animal Studies: A solution of 9 15 MBq ([…]), prepared as described above, was administered to male Wistar rats (160 g, n=3) through the lateral tail vein. Then, images were taken every 15 seconds, for 30 min. (120 images) with a gamma camera (Medis Nucline TH22, Hungary), with a peak centered at 360 keV and a window of ±25%. The image processing was performed on a processing station Segami (USA).

melting point: 180.5 to 181.8 °C
Compound: O=C(O)CCNC(=O)CCC(=O)Nc1cccc2ccccc12

melting point: 167 to 169 °C
Compound: O=C(O)CCC(=O)Nc1cccc2ccccc12 [Compound 2, 4-(1-naphthylamino)-4-oxobutanoic acid]

Partition coefficient [1]: 40.6
logP [1]: 1.6
Compound: CCOC(=O)[C@H](C[S-])[N-]CCN[C@@H](C[S-])C(=O)OCC.[O-2].[Tc] [^99mTc-ECD, ^99mTc-ethylcysteinate diethyl ester, reference compound]

Compound: N1-(2-aminoethyl)-N4-(1-naphthyl) succinimide-^131I [Compound 9]
Partition coefficient ([1]; n-octanol/distilled water, radiometric distribution ratio): 0.54
logP ([1]; octanol/water): −0.27
time of maximum uptake in the region of interest ([2]; 131I-labeled compound): about 3 min
excretion of the radioiodinated compound ([2]; after maximum uptake): slow excretion
